From patent publication US6106872A, “Process for obtaining aroma components and aromas from their precursors of a glycosidic nature, and aroma components and aromas thereby obtained” (Gist-brocades NV, priority 1988, dated 2000)
Entries after “also recorded” stand apart in the source; their conditions may differ.

Columns and labels:
[1] = Sequential enzymatic hydrolysis of HPLC fractions (peaks A and B), GC analysis; type: biochemical, Muscat de Frontignan variety grapes
Procedure: The benefits of high performance liquid chromatography were exploited for isolating some terpene glycosides. For this purpose, fractions were collected as they emerged from the chromatographic system (more especially on elution of the peaks A and B) during the separation of the constituents of the glycosidic extract. (FIG. 10 below). Fifteen successive injections of 20 μl each enabled sufficient material to be isolated for the enzymatic hydrolyses and the analyses by GC to be performed in order to identify the compounds in question.
The chromatographic system consists of the following components: a Vista 5500 chromatograph equipped with a variable wavelength UV/visible spectrophotometer (Varian Assoc., Sunnyvale, Calif., USA); a six-way injection valve (Valco) equipped with a 20-μl loop; a stainless steel column (220×4 mm I.D.) filled with Spheri-5 (Brownlee Labs., Santa Clara, Calif., USA) octadecyl grafted silica of small particle size (5 μm); as well as a precolumn (37×4 mm I.D.) packed with the same stationary phase.
The chromatography is carried out using a water/-acetonitrile aqueous-organic mobile phase (reversed-phase polarity chromatography) and an elution graduated according to an increase in the acetonitrile content from 30 to 40% (by volume) in the course of 10 minutes. The elution solvent is pumped at a flow rate of 1 ml/min. The detection is performed at 200 nm and 0.5 absorbance unit full-scale.
Furthermore, each fraction was subjected to the sequential action of α-arabinosidase and then β-glucosidase. At the end of each stage and according to the procedures described, the incubated medium was analysed by GC in order to test for sugars and glucosides on the one hand, and for terpenols on the other hand. Thus, the peaks A and B were identified, respectively, as neryl and geranyl α-L-arabinofuranosyl-β-D-glucopyranosides. The identity of the geranyl glycoside was verified, in addition, by co-injection of the glycosidic extract with the synthetic compound.

[2] = Enzymatic hydrolysis on natural media by commercial enzyme preparations; type: biochemical, Muscat d'Alexandrie variety grapes; conditions: Hemicellulase + Naringinase, 25° C., 86 hours
Procedure: The enzymatic hydrolysis of a glycosidic extract incorporated, on the one hand into a natural medium (must or dry wine), and on the other hand into a reference medium (buffer), by the action of commercial preparations containing the requisite three glycosidases, was studied.
A juice and a wine of a vine variety not containing terpenols and terpene glycosides, but enriched beforehand with a known amount of glycosidic extract of muscat, are treated with commercial enzyme preparations. The media, as well as controls, are incubated at 25° C. for 86 hours (see the experimental protocol plan below). They are then passed through a column of Amberlite XAD-2 according to the protocol applied for the production of the glycosidic extract, and the terpenols are assayed by GC.
(4) The glycosidic extract used is obtained by passing a must of Muscat d'Alexandrie variety grapes through Amberlite XAD-2. The amount of glycosidic extract (1 ml) added in the tests corresponds to that found in 50 ml of must of Muscat d'Alexandrie variety grapes.

[3] = Enzymatic hydrolysis of a glycosidic extract (TLC and GC monitoring); type: biochemical, Muscat de Frontignan variety grapes; conditions: for % of monoglucosides: Table 5, both enzymes together; for Terpene monoglucosides liberated by α-arabinosidase / Terpene monoglucosides liberated by α-rhamnosidase: Table 5, percentage of the total amount liberated by the two enzymes
Procedure: Thin-layer adsorption chromatography was carried out on pieces of aluminum foil covered with a thin layer (0.2 mm) of silica gel (5553 Silica gel 60 without a fluorescence indicator, Merck). An ethyl acetate/isopropanol/water (65:30:10 v/v/v) mixture was used as a migration solvent.
The sugars and the glycosides are visualized by means of the following mixture, prepared immediately before use: 0.2% napthoresorcinol in ethanol/concentrated sulphuric acid (19:1 v/v). The application of this visualizing agent is followed by drying the plates in the oven (105° C.) for 15 minutes. Apart from their migration distance, the various compounds are also distinguished by their color. The glycosides are purple-red, the arabinosides are bluish, rhamnose greenish pink, arabinose blue and glucose pink.
40 μl of glycosidic extract and 60 μl of a solution of Glc-pNP (internal standard) at a concentration of 50 mg/l in ethyl acetate are introduced into a suitable flask. The mixture is taken to dryness at 40° C. with a stream of nitrogen. 40 μl of the silylating reagent (Tri-sil, Pierce, Rockford, Ill., USA) are then introduced; the flask is sealed and maintained at 40° C. for 20 minutes. After rapid cooling, the silylated sample is then ready for analysis by GC.
The apparatus used consists of a Series 30C gas chromatograph, an "on-column" injector (injected volume 0.5 μl) and a flame ionization detector (Girdel, France). A thin film (0.20 μm) of an OV-1 (girdel) apolar silicone phase is grafted onto the inner wall of the capillary column ([…].). The oven temperature is programmed from 125 to 305° C. at the rate of 5° C./minute, then maintained at 305° C. for 15 minutes. Finally, the detector temperature is set at 300° C. and hydrogen is used as the carrier gas at a pressure of 120 kPa.
The monoterpene alcohols studied here are sufficiently volatile to be chromatographed as they are. To the pentane extract containing them, the internal standard, 4-nonanol (for synthesis, Merck, Darmstadt, FRG) is added in the proportion of 1 μl of a solution at a concentration of 2.89 mg/ml in pentane per 50 μl of medium. The mixture is then dried over sodium sulphate, filtered through glass wool and then concentrated to a volume in the region of 100 μl. For this purpose, the pentane is first removed using a conventional still, and then a Dufton type column of a size suited to the volume remaining to be concentrated.
The constituents of the concentrated extract are separated using a capillary column (25 m×0.32 mm I.D.) containing a CP wax 52 CB (Chrompack, Middelburg, Netherlands) polar phase. The grafted polyethylene glycol film was selected thick (1.28 μm) in order to permit the injection of large sample volumes, up to 4 μl. The analysis is performed using a Fractovap Series 2900 (Carlo Erba, Milan, Italy) chromatograph, equipped with a flame ionization detector maintained at 250° C. and an "on-column" injector. Hydrogen was used as the carrier gas at a pressure of 60 kPa, and the oven temperature was programmed as follows: isothermal at 70° C. for 5 minutes, followed by a rise to 195° C. at the rate of 2° C./minute and a plateau at 195° C. for 15 minutes.
The glycosidic extract was obtained by extraction of a must of Muscat de Frontignan variety grapes collected at maturity in the vines of the Station Experimentale de Pech Rouge (INRA Gruissan, France), followed by removal of the free terpenols and sugars.
The glycoside fraction was taken to dryness under vacuum and then taken up in 18 ml of water. The glycosidic extract used in the chromatographic and enzymatic experiments was thereby obtained.
The experimental protocols for the enzymatic hydrolysis on the glycosidic extract are collated in Table 3. […]

[4] = Enzymatic hydrolyses on synthetic substrates (TLC, pNP, GC); type: biochemical; conditions: from the synthetic glycosides
Description: The enzymatic hydrolysis is followed by thin-layer chromatography (TLC) and by gas chromatography (GC).
In all the tests relating to the enzymatic hydrolysis of the synthetic substrates, the same glycosidase activity (0.15 nkat) is used for each of the enzymes (α-arabinosidase, α-rhamnosidase, β-glucosidase).

SMILES	Terpene monoglucosides liberated by α-arabinosidase [3] [%]	Terpene monoglucosides liberated by α-rhamnosidase [3] [%]	% of monoglucosides [3] [%]	also measured
CC(C)=CCC/C(C)=C\CO[C@@H]1O[C@H](CO[C@@H]2O[C@@H](CO)[C@H](O)[C@H]2O)[C@@H](O)[C@H](O)[C@H]1O (single isomer, unassigned) [Peak A, neryl α-L-arabinofuranosyl-(1--> 6)-β-D-glucopyranoside]	–	–	–	Compounds appearing after action of α-arabinosidase [1]: arabinose; also recorded: Glc--Ner; Compounds appearing after action of α-arabinosidase and then β-glucosidase [1]: glucose; also recorded: nerol
C=CC(C)(O)CCC=C(C)C (stereo not drawn) [Linalol, linalool]	–	–	–	Compounds liberated relative to the reference medium ([2]; MUST (pH 3.4, sugars 180 g/l)): 9%; Compounds liberated relative to the reference medium ([2]; WINE (dry white, pH 3.1)): 14%
CC(C)=CCC/C(C)=C/CO[C@@H]1O[C@H](CO[C@@H]2O[C@@H](CO)[C@H](O)[C@H]2O)[C@@H](O)[C@H](O)[C@H]1O (single isomer, unassigned) [Peak B, geranyl α-L-arabinofuranosyl-(1--> 6)-β-D-glucopyranoside]	–	–	–	Compounds appearing after action of α-arabinosidase [1]: arabinose; also recorded: Glc--Ger; Compounds appearing after action of α-arabinosidase and then β-glucosidase [1]: glucose; also recorded: geraniol
O=[N+]([O-])c1ccc(O)cc1 [pNP, p-nitrophenol]	–	–	–	liberation of the aglycones [4]: liberated only after the sequential action of both glycosidases
OCc1ccccc1 [Benzyl alcohol, benzyl alcohol]	–	–	–	Compounds liberated relative to the reference medium ([2]; MUST (pH 3.4, sugars 180 g/l)): 46%; Compounds liberated relative to the reference medium ([2]; WINE (dry white, pH 3.1)): 50%

Second part, led by results:

Terpene monoglucosides liberated by α-arabinosidase [3] [%]	Terpene monoglucosides liberated by α-rhamnosidase [3] [%]	SMILES	% of monoglucosides [3] [%]	also measured
39	9	CC(C)=CCC/C(C)=C/CO[C@@H]1O[C@H](CO)[C@@H](O)[C@H](O)[C@H]1O [Glc--Ger, geranyl β-D-glucopyranoside]	48	–
10	9	C=CC(C)(CCC=C(C)C)O[C@@H]1O[C@H](CO)[C@@H](O)[C@H](O)[C@H]1O (stereo partly drawn) [Glc--Lin, linalyl β-D-glucopyranoside]	19	–
28	5	CC(C)=CCC/C(C)=C\CO[C@@H]1O[C@H](CO)[C@@H](O)[C@H](O)[C@H]1O [Glc--Ner, neryl β-D-glucopyranoside]	33	–
